The values that follow are results of earlier work, collected in patent US20200085783A1 (priority 2013, published 2020).

Each structure is given as a SMILES string.

One data set addresses NaK pump (Rattus norvegicus, UniProt P06685).
For data set [1] the following is noted: read-out: in vitro IC50 growth inhibitory effects.

For `C[C@@H]1C[C@@]2(NC(=O)CS2)[C@]2(O)O[C@@H]3C[C@@]4(CO)[C@@H](CC[C@@H]5[C@@H]4CC[C@]4(C)[C@@H](C6=CC(=O)OC6)CC[C@]54O)C[C@H]3O[C@@H]2O1` [UNBS1450], on NaK pump, the “decrease in sensitivity of rodent compared to human cells” value is 100-1000 times.

Usually IC50 stands for the concentration that gives 50% inhibition. Regarding `C[C@@H]1O[C@@H](O[C@H]2C[C@@H](O)[C@]3(CO)[C@H]4[C@H](O)C[C@]5(C)[C@@H](C6=CC(=O)OC6)CC[C@]5(O)[C@@H]4CC[C@]3(O)C2)[C@H](O)[C@H](O)[C@H]1O` [ouabain], in data set [1], the IC50 was 10 to 100 nM.
